Reference: patent publication US10201532B2, “Compounds and their use” (ALLECRA THERAPEUTICS GMBH, priority 2010, dated 2019)

Tests used:
[1] = test system: KPC-2 producing K. pneumoniae (ATCC BAA-1705); assay: Synergistic broth micro-dilution MIC (checkerboard); assay type: cell-based, Klebsiella pneumoniae; details: for MIC of Cefepime in combination with BLI / MIC of Cefotaxime in combination with BLI / MIC of Ceftazidime in combination with BLI / MIC of Ceftobiprole in combination with BLI / MIC of Ertapenem in combination with BLI / MIC of Faropenem in combination with BLI / MIC of Imipenem in combination with BLI / MIC of Meropenem in combination with BLI / MIC of Aztreonam in combination with BLI: ATCC BAA-1705; for MIC: Klebsiella pneumoniae, ATCCBAA1705, read-out: MIC of BLI alone
[2] = target: T1, crude KPC-2 enzyme extract (Klebsiella pneumoniae, UniProt Q9F663); assay: β-Lactamase inhibitory assay with CENTA substrate; assay type: biochemical
T1 construct: enzyme extracts from KPC-2 producing and KPC-3 expressing bacterial gram negative strains were used; endogenous in cells; host or cells: KPC-2 producing gram-negative strain
T1 sequence (Q9F663 25-293 limits assumed): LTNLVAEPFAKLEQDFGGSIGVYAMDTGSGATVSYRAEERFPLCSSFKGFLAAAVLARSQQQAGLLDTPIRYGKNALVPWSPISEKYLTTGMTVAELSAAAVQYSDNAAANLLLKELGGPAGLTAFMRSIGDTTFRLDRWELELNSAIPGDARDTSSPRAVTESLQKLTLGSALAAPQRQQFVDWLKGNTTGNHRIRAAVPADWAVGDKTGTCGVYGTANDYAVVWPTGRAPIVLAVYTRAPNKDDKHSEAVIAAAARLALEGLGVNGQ
Excerpt: (§1) The Compound-1 was subjected to β-lactamase inhibitory assay to determine IC50 and to compare that with the comparator BLI agents as described elsewhere (Bebrone et. al., Antimicrob. Agents. Chemother, 2001, 45(6): 1868-1871; Jamieson et. al, Antimicrob. Agents. Chemother, 2003, 47(5): 1652-1657). Briefly, enzyme extracts from KPC-2 producing and KPC-3 expressing bacterial gram negative strains were used to study the β-lactamase inhibitory activity and determination of IC50 using CENTA as the substrate for β-lactamase.

[3] = target: crude KPC-3 enzyme extract (UniProt Q9F663, H272Y, species not given); assay: β-Lactamase inhibitory assay with CENTA substrate; assay type: biochemical; details: also headed KPC2
Excerpt: as §1

[4] = test system: KPC-3 expressing E. coli (J53 R6206); assay: Synergistic broth micro-dilution MIC (checkerboard); assay type: cell-based, Escherichia coli; details: for MIC: Escherichia coli, read-out: MIC of BLI alone, BLI alone

O=C(O)[C@H]1/C(=C/CO)O[C@@H]2CC(=O)N21 [Clavulanic acid]
> 8 µg/mL: MIC [4]
8 µg/mL: MIC of Cefepime in combination with BLI ([1]; BLI at 64 μg/mL) | MIC of Cefotaxime in combination with BLI ([1]; BLI at 64 μg/mL) | MIC of Ertapenem in combination with BLI ([1]; BLI at 64 μg/mL) | MIC of Cefepime in combination with BLI ([4]; BLI at 2 μg/mL) | MIC of Ceftobiprole in combination with BLI ([4]; BLI at 2 μg/mL) | MIC of Cefepime in combination with BLI ([4]; BLI at 4 μg/mL) | MIC of Ceftobiprole in combination with BLI ([4]; BLI at 4 μg/mL) | MIC of Ceftazidime in combination with BLI ([4]; BLI at 8 μg/mL)
330 µM: IC50 [2]
4 µg/mL: MIC of Meropenem in combination with BLI ([1]; BLI at 8 μg/mL) | MIC of Meropenem in combination with BLI ([1]; BLI at 16 μg/mL) | MIC of Cefotaxime in combination with BLI ([4]; BLI at 2 μg/mL)
2 µg/mL: MIC of Imipenem in combination with BLI ([1]; BLI at 16 μg/mL) | MIC of Meropenem in combination with BLI ([1]; BLI at 64 μg/mL) | MIC of Ceftobiprole in combination with BLI ([4]; BLI at 8 μg/mL)
16 µg/mL: MIC of Meropenem in combination with BLI ([1]; BLI at 2 μg/mL) | MIC of Cefotaxime in combination with BLI ([1]; BLI at 16 μg/mL) | MIC of Ceftazidime in combination with BLI ([1]; BLI at 64 μg/mL)
<0.5 µg/mL: MIC of Imipenem in combination with BLI ([1]; BLI at 64 μg/mL)
0.5 µg/mL: MIC of Imipenem in combination with BLI ([4]; BLI at 8 μg/mL) | MIC of Meropenem in combination with BLI ([4]; BLI at 8 μg/mL)
32 to 64 µg/mL: MIC of Cefotaxime in combination with BLI ([1]; BLI at 2 μg/mL) | MIC of Cefotaxime in combination with BLI ([1]; BLI at 4 μg/mL)
32 µg/mL: MIC of Ertapenem in combination with BLI ([1]; BLI at 2 μg/mL) | MIC of Cefepime in combination with BLI ([1]; BLI at 8 μg/mL) | MIC of Cefepime in combination with BLI ([1]; BLI at 16 μg/mL) | MIC of Ertapenem in combination with BLI ([1]; BLI at 16 μg/mL) | MIC of Ceftazidime in combination with BLI ([4]; BLI at 2 μg/mL) | MIC of Ceftazidime in combination with BLI ([4]; BLI at 4 μg/mL)
16 to 32 µg/mL: MIC of Cefotaxime in combination with BLI ([1]; BLI at 8 μg/mL)
1 µg/mL: MIC of Imipenem in combination with BLI ([4]; BLI at 2 μg/mL) | MIC of Meropenem in combination with BLI ([4]; BLI at 2 μg/mL) | MIC of Cefotaxime in combination with BLI ([4]; BLI at 4 μg/mL) | MIC of Imipenem in combination with BLI ([4]; BLI at 4 μg/mL) | MIC of Meropenem in combination with BLI ([4]; BLI at 4 μg/mL) | MIC of Cefepime in combination with BLI ([4]; BLI at 8 μg/mL)
64 µg/mL: MIC of Cefepime in combination with BLI ([1]; BLI at 2 μg/mL) | MIC of Cefepime in combination with BLI ([1]; BLI at 4 μg/mL) | MIC of Ertapenem in combination with BLI ([1]; BLI at 4 μg/mL) | MIC of Ceftazidime in combination with BLI ([1]; BLI at 16 μg/mL) | MIC of Aztreonam in combination with BLI ([1]; BLI at 64 μg/mL) | MIC of Ceftobiprole in combination with BLI ([1]; BLI at 64 μg/mL)
<0.25 µg/mL: MIC of Cefotaxime in combination with BLI ([4]; BLI at 8 μg/mL)
8 to 16 µg/mL: MIC of Imipenem in combination with BLI ([1]; BLI at 2 μg/mL) | MIC of Imipenem in combination with BLI ([1]; BLI at 4 μg/mL)
4 to 8 µg/mL: MIC of Meropenem in combination with BLI ([1]; BLI at 4 μg/mL) | MIC of Imipenem in combination with BLI ([1]; BLI at 8 μg/mL)
92 µM: IC50 [3]
> 64 µg/mL: MIC [1]
>64 µg/mL: MIC of Ceftazidime in combination with BLI ([1]; BLI at 2 μg/mL) | MIC of Ceftobiprole in combination with BLI ([1]; BLI at 2 μg/mL) | MIC of Faropenem in combination with BLI ([1]; BLI at 2 μg/mL) | MIC of Aztreonam in combination with BLI ([1]; BLI at 4 μg/mL) | MIC of Ceftazidime in combination with BLI ([1]; BLI at 4 μg/mL) | MIC of Ceftobiprole in combination with BLI ([1]; BLI at 4 μg/mL) | MIC of Faropenem in combination with BLI ([1]; BLI at 4 μg/mL) | MIC of Ceftazidime in combination with BLI ([1]; BLI at 8 μg/mL) | MIC of Ceftobiprole in combination with BLI ([1]; BLI at 8 μg/mL) | MIC of Aztreonam in combination with BLI ([1]; BLI at 16 μg/mL) | MIC of Ceftobiprole in combination with BLI ([1]; BLI at 16 μg/mL) | MIC of Faropenem in combination with BLI ([1]; BLI at 16 μg/mL) | MIC of Faropenem in combination with BLI ([1]; BLI at 64 μg/mL)

CC1(C)[C@H](C(=O)O)N2C(=O)C[C@H]2S1(=O)=O [Sulbactam]
1 µg/mL: MIC of Meropenem in combination with BLI ([4]; BLI at 4 μg/mL) | MIC of Meropenem in combination with BLI ([4]; BLI at 8 μg/mL)
235 µM: IC50 [3]
16 to 32 µg/mL: MIC of Imipenem in combination with BLI ([1]; BLI at 2 μg/mL) | MIC of Imipenem in combination with BLI ([1]; BLI at 4 μg/mL)
32 µg/mL: MIC of Meropenem in combination with BLI ([1]; BLI at 2 μg/mL) | MIC of Meropenem in combination with BLI ([1]; BLI at 4 μg/mL) | MIC of Meropenem in combination with BLI ([1]; BLI at 8 μg/mL) | MIC of Cefotaxime in combination with BLI ([1]; BLI at 16 μg/mL) | MIC of Meropenem in combination with BLI ([1]; BLI at 16 μg/mL) | MIC of Cefotaxime in combination with BLI ([1]; BLI at 64 μg/mL) | MIC of Ceftazidime in combination with BLI ([4]; BLI at 2 μg/mL) | MIC of Ceftobiprole in combination with BLI ([4]; BLI at 2 μg/mL) | MIC of Ceftazidime in combination with BLI ([4]; BLI at 4 μg/mL) | MIC of Ceftobiprole in combination with BLI ([4]; BLI at 4 μg/mL) | MIC of Ceftazidime in combination with BLI ([4]; BLI at 8 μg/mL)
4 µg/mL: MIC of Imipenem in combination with BLI ([4]; BLI at 2 μg/mL)
≥64 µg/mL: MIC of Cefepime in combination with BLI ([1]; BLI at 4 μg/mL)
2 µg/mL: MIC of Meropenem in combination with BLI ([4]; BLI at 2 μg/mL) | MIC of Imipenem in combination with BLI ([4]; BLI at 4 μg/mL) | MIC of Imipenem in combination with BLI ([4]; BLI at 8 μg/mL)
16 µg/mL: MIC of Imipenem in combination with BLI ([1]; BLI at 8 μg/mL) | MIC of Meropenem in combination with BLI ([1]; BLI at 64 μg/mL) | MIC of Cefepime in combination with BLI ([4]; BLI at 2 μg/mL) | MIC of Cefepime in combination with BLI ([4]; BLI at 4 μg/mL) | MIC of Cefotaxime in combination with BLI ([4]; BLI at 4 μg/mL) | MIC of Ceftobiprole in combination with BLI ([4]; BLI at 8 μg/mL)
> 64 µg/mL: MIC [1]
8 µg/mL: MIC of Imipenem in combination with BLI ([1]; BLI at 16 μg/mL) | MIC of Imipenem in combination with BLI ([1]; BLI at 64 μg/mL) | MIC of Cefepime in combination with BLI ([4]; BLI at 8 μg/mL) | MIC of Cefotaxime in combination with BLI ([4]; BLI at 8 μg/mL)
>64 µg/mL: MIC of Cefepime in combination with BLI ([1]; BLI at 2 μg/mL) | MIC of Cefotaxime in combination with BLI ([1]; BLI at 2 μg/mL) | MIC of Ceftazidime in combination with BLI ([1]; BLI at 2 μg/mL) | MIC of Ceftobiprole in combination with BLI ([1]; BLI at 2 μg/mL) | MIC of Aztreonam in combination with BLI ([1]; BLI at 4 μg/mL) | MIC of Cefotaxime in combination with BLI ([1]; BLI at 4 μg/mL) | MIC of Ceftazidime in combination with BLI ([1]; BLI at 4 μg/mL) | MIC of Ceftobiprole in combination with BLI ([1]; BLI at 4 μg/mL) | MIC of Ertapenem in combination with BLI ([1]; BLI at 4 μg/mL) | MIC of Faropenem in combination with BLI ([1]; BLI at 4 μg/mL) | MIC of Ceftazidime in combination with BLI ([1]; BLI at 8 μg/mL) | MIC of Ceftobiprole in combination with BLI ([1]; BLI at 8 μg/mL) | MIC of Ertapenem in combination with BLI ([1]; BLI at 8 μg/mL) | MIC of Faropenem in combination with BLI ([1]; BLI at 8 μg/mL) | MIC of Aztreonam in combination with BLI ([1]; BLI at 16 μg/mL) | MIC of Ceftazidime in combination with BLI ([1]; BLI at 16 μg/mL) | MIC of Ceftobiprole in combination with BLI ([1]; BLI at 16 μg/mL) | MIC of Ertapenem in combination with BLI ([1]; BLI at 16 μg/mL) | MIC of Faropenem in combination with BLI ([1]; BLI at 16 μg/mL) | MIC of Aztreonam in combination with BLI ([1]; BLI at 64 μg/mL) | MIC of Ceftobiprole in combination with BLI ([1]; BLI at 64 μg/mL) | MIC of Faropenem in combination with BLI ([1]; BLI at 64 μg/mL)
64 µg/mL: MIC of Cefepime in combination with BLI ([1]; BLI at 8 μg/mL) | MIC of Cefotaxime in combination with BLI ([1]; BLI at 8 μg/mL) | MIC of Cefepime in combination with BLI ([1]; BLI at 16 μg/mL) | MIC of Cefepime in combination with BLI ([1]; BLI at 64 μg/mL) | MIC of Ceftazidime in combination with BLI ([1]; BLI at 64 μg/mL) | MIC of Ertapenem in combination with BLI ([1]; BLI at 64 μg/mL)
>32 µg/mL: MIC of Cefotaxime in combination with BLI ([4]; BLI at 2 μg/mL)
> 8 µg/mL: MIC [4]
1400 µM: IC50 [2]
